According to US20230286973A1, “PROTEIN SECRETION INHIBITORS” (KEZAR LIFE SCIENCES, priority 2020, published 2023):

Columns and labels:
[1] = Liver Microsome Stability Assay (mouse); details: mouse liver microsomes, with NADPH, 1.0 uM compound
Protocol: (§1) Stability of a compound was assessed in the presence of liver microsomes from various sources—mouse, rat, monkey and human liver microsomes. 1.0 uM compound, 0.4% DMSO in 0.1 M Potassium Phosphate with 1.0 mg/mL liver microsomes, were incubated at 37° C. with or without 1 mM NADPH. The samples were quenched at 0, and 30 minutes.

[2] = Liver Microsome Stability Assay (rat); details: rat liver microsomes, with NADPH, 1.0 uM compound
Protocol: as §1

[3] = system: IL-2-FL/Gaussia Luciferase; test: Dox Induced IL2-FL-Gluc Assay; assay type: cell-based; details: for IC50: 24 hr Dox induction, 293FRT/TO cells, mean, read-out: 24 hr Dox Inducible IL2FLGluc 293FRT/TO: Mean IC50; for 24 hr Dox Inducible IL2FLGluc 293FRT/TO: IL2/PD1: ratio of IL2FLGluc IC50 to PD1ssGluc IC50, '<=>' given where both are I.A.
In short: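 Stable Flp-In 293 T-REx line, Tet-regulated IL-2 (aa 1-153)–Gaussia luciferase fusion; hygromycin/blasticidin selected. Plated day -1; compound + doxycycline added next day; 37° C, 5% CO2.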

[4] = Liver Microsome Stability Assay (human); details: human liver microsomes, with NADPH, 1.0 uM compound
Protocol: as §1

[5] = system: HER3-ss+4aa/Gaussia Luciferase; test: Dox-Induced Her3-ss-Gluc Assay; assay type: cell-based; details: 24 hr Dox induction; 293FRT/TO cells; mean; read-out: 24 hr Dox Inducible Her3(ss + 4)Gluc 293FRT/TO: Mean IC50
In short: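 Flp-In 293 T-REx cells, stable HER3-ss+4aa/Gaussia luciferase insert, hygromycin/blasticidin selected; plated day before; compound in DMSO/media + doxycycline; 37° C., 5% CO2.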

[6] = system: multiple myeloma cell line U266B1; test: U266 Cell Viability Assay; assay type: cell-based, human; details: Homo sapiens, U-266, 48 h, U266B1 cells, Celltiter-Glo
In short: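 Luminescent ATP read-out (CellTiter-Glo) after 48 h compound exposure at 37° C., 5% CO2; cells maintained in RPMI 1640/10% FBS/2 mM glutamine/pen-strep, compounds diluted in DMSO/media.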

[7] = Liver Microsome Stability Assay (monkey); details: monkey liver microsomes, with NADPH, 1.0 uM compound
Protocol: as §1

[8] = system: PD1-ss+10aa/Gaussia Luciferase; test: Dox-Induced PD1-ss-Gluc Assay; assay type: cell-based; details: 24 hr Dox induction; 293FRT/TO cells; mean; read-out: 24 hr Dox Inducible PD1ssGluc 293FRT/TO: Mean IC50
In short: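 Stable Flp-In 293 T-REx cells carried a doxycycline-inducible construct of Gaussia luciferase fused to the PD1 signal sequence plus 10 amino acids. Cells were plated the day before, then treated with compound dilutions in DMSO/media containing doxycycline at 37 °C, 5% CO2.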

[9] = system: multiple myeloma cell line NCI-H929; test: H929 Cell Viability Assay; assay type: cell-based, human; details: Homo sapiens, NCI-H929, 48 h, NCI-H929 cells, Celltiter-Glo
In short: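 Cells in RPMI 1640/10% FBS; compound dilutions in DMSO/media; 48 h, 37° C, 5% CO2; CellTiter-Glo luciferase readout for viability.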

[10] = system: TNFα-FL/Gaussia Luciferase; test: Dox Induced TNFα-FL-Gluc Assay; assay type: cell-based; details: for IC50: 24 hr Dox induction, 293FRT/TO cells, mean, read-out: 24 hr Dox Inducible TNFaFLGluc 293FRT/TO: Mean IC50; for 24 hr Dox Inducible TNFaFLGluc 293FRT/TO: TNF/PD1: ratio of TNFaFLGluc IC50 to PD1ssGluc IC50, '<=>' given where both are I.A.
In short: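 Cell line: stable Flp-In 293 T-REx, TNFα-FL(1-233)-Gaussia luciferase fusion, T-REx-inducible. Plated day -1; compounds in DMSO/media + doxycycline, 37 °C, 5% CO2. Undefined stereocentres = mixture tested.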

SMILES	Liver Microsome Stability (Multiple Species): Mouse - % Remaining after 30 min w/NADPH [1] [%]	Liver Microsome Stability (Multiple Species): Rat - % Remaining after 30 min w/NADPH [2] [%]	IC50 [3] [µM]	Liver Microsome Stability (Multiple Species): Human - % Remaining after 30 min w/NADPH [4] [%]	IC50 [5] [µM]	EC50 [6] [µM]	Liver Microsome Stability (Multiple Species): Monkey - % Remaining after 30 min w/NADPH [7] [%]	IC50 [8] [µM]	EC50 [9] [µM]	IC50 [10] [µM]	24 hr Dox Inducible IL2FLGluc 293FRT/TO: IL2/PD1 [3]	24 hr Dox Inducible TNFaFLGluc 293FRT/TO: TNF/PD1 [10]
O=C(Nc1nc(/C=C/[C@H]2CCCCN2)cs1)c1cccn1Cc1ccncc1 [Compound E16, (R,E)-N-(4-(2-(piperidin-2-yl)vinyl)thiazol-2-yl)-1-(pyridin-4-ylmethyl)-1H-pyrrole-2-carboxamide]	37	51.2	> 25	1.56	> 25	> 25	0.72	> 25	> 25	> 25	1	
O=C(Nc1nc([C@H]2CCCN2)cs1)c1cccn1Cc1ccncc1 [Compound E17, (R)-1-(pyridin-4-ylmethyl)-N-(4-(pyrrolidin-2-yl)thiazol-2-yl)-1H-pyrrole-2-carboxamide]	35.8	27.8	> 25	35.6	> 25	> 25	18.1	> 25	> 25	> 25	1	
O=C(Nc1nc([C@H]2CCCN2c2ccccc2)cs1)c1cccn1CCc1cccnc1 [Compound E21, (R)-N-(4-(1-phenylpyrrolidin-2-yl)thiazol-2-yl)-1-(2-(pyridin-3-yl)ethyl)-1H-pyrrole-2-carboxamide]	0.02	0.1	> 25	0.8	> 25	23.7	0.23	6.48	15.6	> 25	>3.9	>3.86
CC(=O)NC/C=C/c1csc(NC(=O)c2cccn2Cc2ccncc2)n1 [Compound E30, (E)-N-(4-(3-acetamidoprop-1-en-1-yl)thiazol-2-yl)-1-(pyridin-4-ylmethyl)-1H-pyrrole-2-carboxamide]	26.4	37.7	> 25	20.8	> 25	> 25	9.96	> 25	> 25	> 25	1	

The next lines start with results.

Liver Microsome Stability (Multiple Species): Mouse - % Remaining after 30 min w/NADPH [1] [%]	Liver Microsome Stability (Multiple Species): Rat - % Remaining after 30 min w/NADPH [2] [%]	IC50 [3] [µM]	Liver Microsome Stability (Multiple Species): Human - % Remaining after 30 min w/NADPH [4] [%]	IC50 [5] [µM]	EC50 [6] [µM]	Liver Microsome Stability (Multiple Species): Monkey - % Remaining after 30 min w/NADPH [7] [%]	IC50 [8] [µM]	EC50 [9] [µM]	IC50 [10] [µM]	SMILES	24 hr Dox Inducible IL2FLGluc 293FRT/TO: IL2/PD1 [3]	24 hr Dox Inducible TNFaFLGluc 293FRT/TO: TNF/PD1 [10]
1.95	10.1	0.184	5.08	0.114	> 25	0.67	0.0533	5.91	0.832	CC(c1ccncc1)n1cccc1C(=O)Nc1nc([C@H]2CCCN2c2ccccc2)cs1 (stereo partly drawn) [Compound E13, N-(4-((R)-1-phenylpyrrolidin-2-yl)thiazol-2-yl)-1-(1-(pyridin-4-yl)ethyl)-1H-pyrrole-2-carboxamide]	3.4	15.6
0.1	0.11	6.62	0.2	20.7	> 25	0.11	4.24	> 25	> 25	Cc1ccc(S(=O)(=O)N2CCC[C@@H]2c2csc(NC(=O)c3cccn3Cc3ccncc3)n2)cc1 [Compound E14, (R)-1-(pyridin-4-ylmethyl)-N-(4-(1-tosylpyrrolidin-2-yl)thiazol-2-yl)-1H-pyrrole-2-carboxamide]	1.6	>5.90
0.54	0.53	> 25	0.91	> 25	> 25	0.11	> 25	> 25	> 25	CC(=O)N(C)C/C=C/c1csc(NC(=O)c2cccn2Cc2ccncc2)n1 [Compound E15, (E)-N-(4-(3-(N-methylacetamido)prop-1-en-1-yl)thiazol-2-yl)-1-(pyridin-4-ylmethyl)-1H-pyrrole-2-carboxamide]	1	
33.5	19.4	> 5	0.2	> 5	> 25	0.27	> 5	> 25	> 5	O=C(Nc1nc(/C=C/[C@@H]2CCCCN2)cs1)c1cccn1Cc1ccncc1 [Compound E18, (S,E)-N-(4-(2-(piperidin-2-yl)vinyl)thiazol-2-yl)-1-(pyridin-4-ylmethyl)-1H-pyrrole-2-carboxamide]	1	
1.4	0.79	0.399	11.5	0.216	> 25	0.58	0.13	11.9	3.42	O=C(Nc1nc([C@H]2CCCN2c2ccccc2)cs1)c1cccn1Cc1ccncc1Br [Compound E22, (R)-1-((3-bromopyridin-4-yl)methyl)-N-(4-(1-phenylpyrrolidin-2-yl)thiazol-2-yl)-1H-pyrrole-2-carboxamide]	3.1	26.4
6.17	4.14	0.773	3	0.629	> 25	2.07	0.338	18	11.4	O=C(Nc1nc([C@H]2CCCN2c2ccccc2)cs1)c1cccn1Cc1ccnc(Br)c1 [Compound E23, (R)-1-((2-bromopyridin-4-yl)methyl)-N-(4-(1-phenylpyrrolidin-2-yl)thiazol-2-yl)-1H-pyrrole-2-carboxamide]	2.3	33.8
